Laboratory results taken from patent publication US6551831B2, “Dyes and methods of detection of nucleic acid in immature red blood cells” (Coulter International Corp., priority 2000, dated 2003).
Read-outs that look alike come from different tables or passages of the source.

Experiments:
[1] = tested on: Torula yeast RNA; test: Fluorescence of dyes in PBS with and without free Torula yeast RNA, excitation 633 nm; type: binding; settings: Table 4, Group-III dyes; for Fluorescence Intensity Unbound to RNA: conc. 2 μm in PBS, peak of emission spectrum; for Fluorescence Intensity Bound to RNA 1 mg/ml: conc. 2 μm
Procedure: To compare the relative fluorescence intensities of the dyes in bound and unbound states, fluorescence measurements were conducted in a spectrofluorometer by exciting each dye solution at 633 nm under appropriate conditions, recording the fluorescence spectrum of each sample, and measuring the intensities at the peak of these fluorescence spectra. […] A portion of the stock solution for the Dye-1 was diluted in PBS to obtain a dye concentration of […]. […] The fluorescence spectrum of this dye solution in presence of RNA was measured by illuminating the sample at 633 nm.

[2] = tested on: Calf thymus DNA; test: Fluorescence of dyes in PBS with and without free calf thymus DNA, excitation 633 nm; type: binding; settings: Table 5; for Fluorescence Intensity Unbound to DNA: Group-III dyes in PBS, peak of emission spectrum; for Fluorescence Intensity Bound to DNA 0.5 mg/ml: Group-III dyes
Procedure: To compare the relative fluorescence intensities of the dyes in bound and unbound states, fluorescence measurements were conducted in a spectrofluorometer by exciting each dye solution at 633 nm under appropriate conditions, recording the fluorescence spectrum of each sample, and measuring the intensities at the peak of these fluorescence spectra. […] Next, the fluorescence spectrum of the dye solution was measured by illuminating the sample at 633 nm.

[3] = tested on: reticulocytes; test: Rapid staining of reticulocytes in whole blood with dye in rapid staining composition, flow cytometry (HeNe 632.8 nm); type: cell-based; settings: 5 μM dye, analyzed immediately
Procedure: Approximately 11.5 mW of 632.8 nm laser light from the above laser was incident on the beam shaping optics of the flow cytometer. Forward light scatter (FS), side scatter (SS) and one fluorescence (FL) parameter in the orthogonal direction were measured to analyze the red cells. The red cells were gated on a SS vs. FS dotplot. A fixed gate was then used to enumerate […] on a FL vs. FS dotplot. […] The […] reagent is a solution comprising about 20 μg/ml Dodecyl-β-D-maltoside and 0.05% Proclin 300 in PBS at about pH 7.4 and about 290 mOsm. […] The mixture was then aspirated into the XLTM flow cytometer containing the red HeNe laser for analysis. […] The mixture was then aspirated into the XLTM flow cytometer containing the red HeNe laser for analysis. […] The […] reagent is a solution comprising about 20 μg/ml Dodecyl-β-D-maltoside and 0.05% Proclin 300 in PBS at about pH 7.4 and about 290 mOsm. […] The […] reagent is a solution comprising about 20 μg/ml Dodecyl-β-D-maltoside and 0.05% Proclin 300 in PBS at about pH 7.4 and about 290 mOsm. […] The […] reagent is a solution comprising about 20 μg/ml Dodecyl-β-D-maltoside and 0.05% Proclin® 300 in PBS at about pH 7.4 and about 290 mOsm.

[4] = tested on: reticulocytes
[5] = tested on: calf liver RNA; test: Fluorescence of dyes in PBS with and without free calf liver RNA (spectrofluorometer); type: binding; settings: for Fluorescence enhancement ratio (Bound/Unbound): RNA-bound dye intensity / free dye intensity; for Fluorescence Intensity Unbound to RNA / Fluorescence Intensity Bound to RNA: Table 1, peak emission wavelength; for Fluorescence Intensity Unbound to RNA: dye 2 μM in PBS, no RNA; for Fluorescence Intensity Bound to RNA: dye 2 μM, calf liver RNA 8 mg/ml in PBS
Procedure: For fluorescence measurements, a stock solution of each compound in DMSO was made (as described in Example 1D). A portion of this stock solution was diluted in PBS to obtain a dye concentration of 2 μm. 1 ml of this dilute solution was placed in a glass cuvette and the fluorescence spectra obtained exciting the dye at its excitation wavelength maximum. Next, 1 ml of a solution of free calf liver RNA (Sigma) dissolved in PBS at a concentration of 8 mg/ml, and a measured volume of the dye stock solution was mixed to obtain a dye concentration of 2 μM in the RNA solution. This dye solution diluted in the RNA solution was placed in a glass cuvette and the fluorescence spectra measured using the same excitation as in the previous measurement.
These intensities were obtained at the peak emission wavelengths of each fluorescence spectra measured as described above. FIG. 1C compares the fluorescence intensities of the RNA-bound and unbound dyes in graphical form.

COc1cc(CN2C=C/C(=C\C=C\c3sc4ccccc4[n+]3CCO)c3ccccc32)cc(OC)c1 [Dye-3]
Fluorescence Intensity Unbound to RNA [1]: 10
Fluorescence Intensity Bound to RNA 1 mg/ml [1]: 328
Fluorescence Intensity Unbound to DNA [2]: 15
Fluorescence Intensity Bound to DNA 0.5 mg/ml [2]: 400
percentage of reticulocytes enumerated ([3]; Example 9 Run 7, normal donor): 2.3%
percentage of reticulocytes enumerated ([3]; Example 9 Run 8, abnormal donor (reference 12%)): approximately 14.6%
percentage of reticulocytes enumerated ([3]; Example 9 Run 9, another abnormal donor (reference 27%)): approximately 24%

OCC[n+]1c(/C=C/C=C2\C=CN(Cc3ccccc3)c3ccccc32)sc2ccccc21 [Dye-5]
Fluorescence Intensity Unbound to RNA [1]: 10
Fluorescence Intensity Bound to RNA 1 mg/ml [1]: 420
Fluorescence Intensity Unbound to DNA [2]: 10
Fluorescence Intensity Bound to DNA 0.5 mg/ml [2]: 660

C[n+]1c(/C=C/C=C2\C=CN(Cc3ccccc3B(O)O)c3ccccc32)sc2ccccc21 [Dye-6]
Fluorescence Intensity Unbound to RNA [1]: 6
Fluorescence Intensity Bound to RNA 1 mg/ml [1]: 410
Fluorescence Intensity Unbound to DNA [2]: 4
Fluorescence Intensity Bound to DNA 0.5 mg/ml [2]: 380

CCNc1cc2[s+]c3cc(NCC)c(C)cc3nc2cc1C.[Cl-] [New Methylene Blue]
retic percentage ([4]; Gen*S method, blood sample of Example 3): 6.7%
retic percentage ([4]; normal donor of Example 4 Run 3, commercially available clinical hematology analyzer): 0.95%

Cc1ccc2c(c1)sc(/C=C/C=C1\C=CN(C(C)C)c3ccccc31)[n+]2CCO [ReticRed5]
Fluorescence enhancement ratio (Bound/Unbound) [5]: 292.884
Fluorescence Intensity Unbound to RNA [5]: 2.24
Fluorescence Intensity Bound to RNA [5]: 656.06

Cc1ccc2c(c1)sc(/C=C/C=C1\C=CN(CCO)c3ccccc31)[n+]2CCO [ReticRed6]
Fluorescence enhancement ratio (Bound/Unbound) [5]: 225.164
Fluorescence Intensity Unbound to RNA [5]: 2.75
Fluorescence Intensity Bound to RNA [5]: 619.2
